Measured values published in paper PMC7767178 (International Journal of Molecular Sciences, 2020).
Values after ≈ are worked out from the molar mass of the structure shown. Positions of bridges follow the written chain, without caps; N, C: chain ends. Residues, ends and D or L forms follow the SMILES beside them.

Experiments:
[1] = tested on: trypsin; settings: for MIC after trypsin treatment: pH 8
[2] = tested on: mice; assay: Toxic effect on mice; assay type: in vivo; settings: reason for exclusion from the mouse models
[3] = tested on: pepsin; settings: pH 2
[4] = tested on: A. veronii ACCC61732 biofilm; assay type: cell-based; settings: 16× MIC, 24 h, crystal violet
Experimental: Mid-log phase A. veronii ACCC61732 cells (1 × 10^8 CFU/mL, 180 µL) were added into the 96-well plates. […] Effects of peptides on biofilms formation was evaluated by the crystal violet staining as previously described. The untreated bacteria were used as the negative control (A) and fresh TSB medium was used as the blank control (A0). The inhibition effect of peptides on early biofilms was determined by the following equation: Biofilms (%) = [(Apeptides − A0)/(A − A0)] × 100.

[5] = tested on: A. veronii ACCC61732; settings: 3 h, MIC against A. veronii ACCC61732; for MIC after physiological salt 50 mM: NaCl 50 mM; for MIC after physiological salt 100 mM: NaCl 100 mM
Experimental: Similarly, salt stability of peptides was determined after a 3 h-incubation in different NaCl solutions (50, 100, 200, 300, 400, and 500 mM). […] The activity of peptides against A. veronii ACCC61732 was determined as described above. The untreated peptides were used as the positive control and buffers alone were used as the negative control. All assays were conducted in triplicate.

[6] = tested on: mouse erythrocytes; assay: Hemolysis; assay type: cell-based; settings: 256 μg/mL; 8% mouse erythrocyte suspension, 37 °C, 1 h, absorbance 540 nm
Experimental: To determine the hemolysis of peptides, eyeball blood was collected from 6-week-old SPF ICR mice. The blood was centrifuged at 4 °C for 10 min (1500 rpm), washed three times with 0.9% physiological saline, and diluted to 8% suspension. […] Red blood cell suspensions and peptide solutions (100 μL) were mixed in 96-well plates, centrifuged at 4 °C for 5 min (1500 rpm), and incubated at 37 °C for 1 h. The supernatant was added into a 96-well plate and the UV absorbance was measured at 540 nm using a microplate reader. Physiological saline and 0.1% Triton X-100 were used as 0% and 100% hemolytic controls, respectively. The hemolytic ratio was calculated as follows: Hemolysis (%) = [(Abspeptide − Abssaline)/(Abs0.1%Triton X-100 − Abssaline)] × 100% [38].

[7] = tested on: Pseudomonas aeruginosa and Gram-positive bacteria such as Staphylococcus aureus and S. hyicus; assay: MIC, range over strains; assay type: cell-based; settings: range over the strains of Table 2
Source text: All experiments were repeated three times.

[8] = 60 min, 200 μg/mL peptide, 37 °C, inhibition zone against A. veronii ACCC61732
Experimental: Briefly, a final concentration of 200 μg/mL peptide was incubated in SGF and SIF at 37 °C. At different time intervals, an aliquot of 20 μL mixture was taken and the activity of peptides was tested against A. veronii ACCC61732 by the inhibition zone assay. […] in PBS was used as the positive control; SGF and SIF were used as negative controls.

[9] = tested on: A. veronii ACCC61732; assay: SEM morphology; assay type: cell-based; settings: 4× MIC, 2 h
Experimental: MDR A. veronii ACCC61732 cells were cultured in MHB at 37 °C (250 rpm) until the mid-log phase of growth, harvested by centrifugation, and diluted with 0.01 M PBS (pH 7.4) to 0.5–5 × 10^8 CFU/mL. […] For SEM, the samples were harvested (5000× g, 5 min) and fixed with 2.5% glutaraldehyde at 4 °C overnight. The cells were dehydrated for 10 min in a graded ethanol series (50%, 70%, 90%, and 100%) and transferred to a mixture of 100% ethanol, tertiary butanol, and absolute tertiary butanol (v:v = 1:1) for 15 min. Finally, the specimens were dehydrated in a critical point dryer with liquid CO2, coated with gold–palladium, and observed using a QUANTA200 (FEI, Philips, Amsterdam, Netherlands).

[10] = tested on: A. veronii ACCC61732; assay: pH stability, MIC read-out; assay type: physicochemical; settings: MIC against A. veronii ACCC61732; for MIC after treatment at pH 10: glycine-NaOH buffer pH 10.0, 3 h; for MIC after treatment at pH 6: sodium phosphate buffer pH 6.0, 3 h; for MIC after treatment at pH 8: tris-HCl buffer pH 8.0, 3 h
Experimental: To evaluate pH stability, peptides were dissolved in glycine-HCl buffer (pH 2.0), sodium acetate buffer (pH 4.0), sodium phosphate buffer (pH 6.0), tris-HCl buffer (pH 8.0), or glycine-NaOH buffer (pH 10.0) and treated for 3 h. The MIC values of peptides against A. veronii ACCC61732 were measured as described above.

[11] = tested on: A. veronii ACCC61732; assay type: physicochemical; settings: MIC against A. veronii ACCC61732; for MIC after treatment at 4 °C: 1 h at 4 °C; for MIC after treatment at 20 °C: 1 h at 20 °C; for MIC after treatment at 40 °C: 1 h at 40 °C; for MIC after treatment at 60 °C: 1 h at 60 °C; for MIC after treatment at 80 °C: 1 h at 80 °C
Experimental: The thermal stability of peptides was determined after treatment for 1 h at different temperatures (4, 20, 40, 60, 80, and 100 °C). The relative antibacterial activity of peptides against A. veronii ACCC61732 was determined by the MIC assay.

[12] = 37 °C
[13] = tested on: RAW 264.7 cells; assay: Cytotoxicity, MTT; assay type: cell-based; settings: 24 h
Experimental: To determine the cytotoxicity of peptides, RAW 264.7 cells (2.5 × 10^4 cells/well) were seeded into 96-well plates and incubated for 24 h. […] The cells were dyed with 3-(4,5-dimethyl-2-thiazolyl)-2,5-diphenyl-2-H-tetrazolium bromide (MTT) (5 mg/mL) for 4 h, incubated with dimethyl sulfoxide (DMSO), and measured at 570 nm. PBS was used as controls. The cell survival rate was calculated by the equation: Survival rate (%) = (Abspeptide/AbsPBS) × 100 [25].

[14] = target: proteinase K (Parengyodontium album, UniProt P06873); settings: proteinase K 40 mAU/mg, pH 7.0, peptide:enzyme 10:1 (w/w); MIC against A. veronii ACCC61732; triplicate
Chain of proteinase K (P06873 106-384): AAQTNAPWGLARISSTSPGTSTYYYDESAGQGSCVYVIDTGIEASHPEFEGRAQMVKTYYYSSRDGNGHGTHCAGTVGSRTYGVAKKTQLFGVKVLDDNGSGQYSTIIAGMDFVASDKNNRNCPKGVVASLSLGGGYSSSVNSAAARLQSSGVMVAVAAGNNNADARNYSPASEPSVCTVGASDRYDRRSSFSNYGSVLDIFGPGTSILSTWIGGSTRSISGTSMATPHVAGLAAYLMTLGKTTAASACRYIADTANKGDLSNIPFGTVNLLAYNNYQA

| Structure (SMILES) | MIC after trypsin treatment [1] | MIC after pepsin treatment [3] | MIC after physiological salt 50 mM [5] [μg/mL] | MIC after physiological salt 100 mM [5] [μg/mL] | hemolysis [6] [%] | MIC after treatment at pH 10 [10] [μg/mL] | MIC after treatment at pH 6 [10] [μg/mL] | MIC after treatment at pH 8 [10] [μg/mL] | MIC after treatment at 4 °C [11] [µg/mL] | MIC after treatment at 20 °C [11] [µg/mL] | MIC after treatment at 40 °C [11] [µg/mL] | MIC after treatment at 60 °C [11] [µg/mL] | MIC after treatment at 80 °C [11] [µg/mL] | further results |
| --- | --- | --- | --- | --- | --- | --- | --- | --- | --- | --- | --- | --- | --- | --- |
| CC(C)[C@@H]1NC(=O)CNC(=O)[C@H](CC(N)=O)NC(=O)[C@H](CCCNC(=N)N)NC(=O)[C@H](Cc2ccc(O)cc2)NC(=O)[C@H](C(C)C)NC(=O)[C@@H](NC(=O)[C@@H](NC(=O)[C@H](CC(N)=O)NC(=O)[C@H](Cc2c[nH]c3ccccc23)NC(=O)[C@H](C)NC(=O)[C@H](Cc2ccccc2)NC(=O)[C@H](CCCN)N=C(N(C)C)N(C)C)C(C)C)CSSC[C@@H](C(=O)N[C@@H](Cc2c[nH]cn2)C(=O)N[C@@H](CCCNC(=N)N)C(=O)N[C@@H](CCCNC(=N)N)C(=O)N[C@@H](C)C(=O)N[C@@H](CC(N)=O)C(N)=O)NC(=O)[C@H](C(C)C)NC(=O)[C@H](CCCNC(=N)N)NC1=O (stereo in doubt) [Guo-N6NH2] | lost their activity | 8 µg/mL (≈ 3.04 µM) | – | – | – | – | – | – | – | – | – | – | – | toxicity in mice [2]: toxic effect on mice |
| O=C(O)c1cn(C2CC2)c2cc(N3CCNCC3)c(F)cc2c1=O [CIP, ciprofloxacin, reference compound] | – | – | – | – | – | – | – | – | – | – | – | – | – | inhibition of early biofilm [4]: 70.75% |
| CC(C)[C@H]1NC(=O)CNC(=O)[C@@H](CC(N)=O)NC(=O)[C@@H](CCCNC(=N)N)NC(=O)[C@@H](Cc2ccc(O)cc2)NC(=O)[C@@H](C(C)C)NC(=O)[C@H](NC(=O)[C@H](NC(=O)[C@@H](CC(N)=O)NC(=O)[C@@H](Cc2c[nH]c3ccccc23)NC(=O)[C@@H](C)NC(=O)[C@@H](Cc2ccccc2)NC(=O)CN)C(C)C)CSSC[C@H](C(=O)N[C@H](Cc2c[nH]cn2)C(=O)N[C@H](CCCNC(=N)N)C(=O)N[C@H](CCCNC(=N)N)C(=O)N[C@H](C)C(=O)N[C@H](CC(N)=O)C(N)=O)NC(=O)[C@@H](C(C)C)NC(=O)[C@@H](CCCNC(=N)N)NC1=O [DN6NH2] | – | retained the antibacterial activity | 4 | 4 | 1.46 | 4 | 4 | 4 | 4 (≈ 1.62 µM) | 4 (≈ 1.62 µM) | 4 (≈ 1.62 µM) | 4 (≈ 1.62 µM) | 4 (≈ 1.62 µM) | structure after trypsin treatment, MS analysis [1]: not affected by trypsin; MIC after physiological salt 200 mM ([5]; NaCl 200 mM): 4 μg/mL; MIC after physiological salt 300 mM ([5]; NaCl 300 mM): 4 μg/mL; MIC after physiological salt 400 mM ([5]; NaCl 400 mM): 4 μg/mL; MIC after physiological salt 500 mM ([5]; NaCl 500 mM): 4 μg/mL; MICs against Pseudomonas aeruginosa and Gram-positive bacteria such as S. aureus and S. hyicus [7]: 1.62 to 6.46 µM; antibacterial activity after treatment in SGF [8]: higher antibacterial activity than N6NH2 and other analogs; cells producing filamentous substances [9]: over 50%; activity retained in SIF ([12]; 200 μg/mL peptide, inhibition zone against A. veronii ACCC61732): 100%; state after incubation in SIF ([12]; 1 h): remained intact; cell survival rate at low concentrations [13]: over 100% |
| CC(C)[C@@H]1NC(=O)CNC(=O)[C@H](CC(N)=O)NC(=O)[C@H](CCCNC(=N)N)NC(=O)[C@H](Cc2ccc(O)cc2)NC(=O)[C@H](C(C)C)NC(=O)[C@@H](NC(=O)[C@@H](NC(=O)[C@H](CC(N)=O)NC(=O)[C@H](Cc2c[nH]c3ccccc23)NC(=O)[C@H](C)NC(=O)[C@H](Cc2ccccc2)NC(=O)CN)C(C)C)CSSC[C@@H](C(=O)N[C@@H](Cc2cnc[nH]2)C(=O)N[C@@H](CCCNC(=N)N)C(=O)N[C@@H](CCCNC(=N)N)C(=O)N[C@@H](C)C(=O)N[C@@H](CC(N)=O)C(N)=O)NC(=O)[C@H](C(C)C)NC(=O)[C@H](CCCNC(=N)N)NC1=O [N6NH2] | – | – | 4 | 4 | – | 4 | 4 | 4 | 4 (≈ 1.62 µM) | 4 (≈ 1.62 µM) | 4 (≈ 1.62 µM) | 4 (≈ 1.62 µM) | 4 (≈ 1.62 µM) | MIC after treatment at pH 2 ([10]; glycine-HCl buffer pH 2.0, 3 h): 4 μg/mL; MIC after treatment at pH 4 ([10]; sodium acetate buffer pH 4.0, 3 h): 4 μg/mL; MIC after proteinase K treatment [14]: > 128 µg/mL |
| CC(C)[C@@H]1NC(=O)CNC(=O)[C@H](CC(N)=O)NC(=O)[C@H](CCCNC(=N)N)NC(=O)[C@H](Cc2ccc(O)cc2)NC(=O)[C@H](C(C)C)NC(=O)[C@@H](NC(=O)[C@@H](NC(=O)[C@H](CC(N)=O)NC(=O)[C@H](Cc2c[nH]c3ccccc23)NC(=O)[C@H](C)NC(=O)[C@H](Cc2ccccc2)NC(=O)CN)C(C)C)CSSC[C@@H](C(=O)N[C@@H](Cc2c[nH]cn2)C(=O)N[C@@H](CCCNC(=N)N)C(=O)N2CCC[C@H]2C(=O)N[C@@H](C)C(=O)N[C@@H](CC(N)=O)C(N)=O)NC(=O)[C@H](C(C)C)NC(=O)[C@H](CCCNC(=N)N)NC1=O [N6PNH2] (H-GFAWNVCVYRNGVRVCHRPAN-NH2; disulfide 7-16 (inferred)) | lost their activity | – | – | – | 0.56 | – | – | – | – | – | – | – | – | – |
| CC(C)[C@H](N)C(=O)N[C@@H](Cc1ccccc1)C(=O)N[C@@H](C)C(=O)N[C@@H](Cc1c[nH]c2ccccc12)C(=O)N[C@@H](CC(N)=O)C(=O)N[C@H](C(=O)N[C@H]1CSSC[C@@H](C(=O)N[C@@H](Cc2c[nH]cn2)C(=O)N[C@@H](CCCNC(=N)N)C(=O)N[C@@H](CCCNC(=N)N)C(=O)N[C@@H](C)C(=O)N[C@@H](CC(N)=O)C(N)=O)NC(=O)[C@H](C(C)C)NC(=O)[C@H](CCCNC(=N)N)NC(=O)[C@H](C(C)C)NC(=O)[C@H](C(C)C)NC(=O)[C@H](CC(N)=O)NC(=O)[C@H](CCCNC(=N)N)NC(=O)[C@H](Cc2ccc(O)cc2)NC(=O)[C@H](C(C)C)NC1=O)C(C)C [V112N6NH2] (H-VFAWNVCVYRNVVRVCHRRAN-NH2; disulfide 7-16 (inferred)) | lost their activity | – | – | – | 4.59 | – | – | – | – | – | – | – | – | – |
